Source: ChEMBL document CHEMBL1136024, “CCR3 antagonists: a potential new therapy for the treatment of asthma. Discovery and structure-activity relationships” (Bioorg Med Chem Lett, 2002)

Columns and labels:
[1] = biological target: T1, C-C chemokine receptor type 3 (Homo sapiens, UniProt P51677); assay: In vitro inhibition if C-C chemokine receptor type 3 (CCR3) using 150p M [125I]-labeled human eotaxin
T1 sequence (P51677 whole entry): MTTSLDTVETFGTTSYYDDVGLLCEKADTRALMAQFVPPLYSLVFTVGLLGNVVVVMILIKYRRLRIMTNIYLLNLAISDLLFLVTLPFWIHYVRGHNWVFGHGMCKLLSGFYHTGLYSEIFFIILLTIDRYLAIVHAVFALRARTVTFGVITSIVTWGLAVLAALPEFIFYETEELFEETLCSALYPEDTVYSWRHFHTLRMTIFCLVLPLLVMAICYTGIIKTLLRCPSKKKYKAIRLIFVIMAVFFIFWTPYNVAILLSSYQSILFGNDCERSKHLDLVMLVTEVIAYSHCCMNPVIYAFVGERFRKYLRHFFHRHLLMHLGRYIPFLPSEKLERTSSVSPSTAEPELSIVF

[2] = biological target: T2, C-C chemokine receptor type 3 (Homo sapiens) (UniProt P51677); assay: In vitro inhibitory activity against C-C chemokine receptor type 3 at 10 uM using 150p M [125I]-labeled human eotaxin
T2 sequence (whole entry): T1 sequence (P51677 whole entry)

[3] = biological target: T1, C-C chemokine receptor type 3; assay: In vitro C-C chemokine receptor type 3 receptor activity of compound to inhibit eotaxin induced [Ca2+] mobilization in human Ca2+ mobilization assay
[4] = biological target: T2, C-C chemokine receptor type 3 (Homo sapiens); conditions: 0.5 uM
Description: In vitro inhibitory activity of compound against C-C chemokine receptor type 3 at 0.5 uM using 150p M [125I]-labeled human eotaxin as radioligand

[5] = biological target: T2, C-C chemokine receptor type 3 (Homo sapiens); assay: In vitro inhibitory activity of compound against C-C chemokine receptor type 3 at 5 uM using 150p M [125I]-labeled human eotaxin as radioligand

| IC50 [1] | inhibition [2] | IC50 [3] | inhibition [4] | inhibition [5] | SMILES |
| --- | --- | --- | --- | --- | --- |
| 500 nM | 100% |  |  |  | Fc1ccc(CCCN2CC[C@@H]3[C@H](C2)c2cccc4c2N3CC4)cc1 |
| 40 nM |  | 200 nM |  |  | COc1cccc(NC(=O)N2CCN(C(=O)OC(C)(C)C)C(CN3CCC(Cc4ccc(F)cc4)CC3)C2)c1 (racemic) |
| 30 nM |  | 140 nM |  |  | COc1cccc(NC(=O)N2CCNC(CN3CCC(Cc4ccc(F)cc4)CC3)C2)c1 (racemic) |
| 6600 nM | 73% |  |  |  | O=C(NCCCCN1CC[C@@H]2[C@H](C1)c1cccc3c1N2CC3)C12CC3CC(CC(C3)C1)C2 |
|  |  |  | 40% |  | CC[C@H](O)[C@H]1C[C@@H](Cc2ccccc2)CCN1CCCNC(=O)Nc1cccc(C(C)=O)c1 |
| 50 nM |  | 820 nM |  |  | COc1cccc(NC(=O)N2CCCC(CN3CCC(Cc4ccc(F)cc4)CC3)C2)c1 (racemic) |
| 11000 nM | 45% |  |  |  | O=C(NCCCCN1CC[C@@H]2[C@H](C1)c1cccc3c1N2CC3)C1CCCCC1 |
| 50 nM |  | 220 nM |  |  | COc1cccc(NC(=O)N2CCOC(CN3CCC(Cc4ccc(F)cc4)CC3)C2)c1 (racemic) |
|  |  |  |  | 52% | N#Cc1cccc(NC(=O)NCCCN2CCC(Cc3ccc(C(F)(F)F)cc3)CC2)c1 |
